Reference: patent US20170022201A1, “MACROCYLIC PYRIDINE DERIVATIVES” (Janssen Pharmaceutica NV, priority 2014, published 2017)

molecular target: T1, EF2K (Homo sapiens, UniProt O00418); experiment: Biochemical EF2K lysate-based kinase assay (AlphaLISA p-eEF2 Thr56); conditions: LN-229 cell lysates, 10 mM ATP, pH 6.6; pIC50 = -log IC50 (M); read-out: eEF2K_C_alphalisa pIC50 (converted)
T1 construct: host or cells: LN-229 glioblastoma cell lysate
T1 sequence (O00418 1-725): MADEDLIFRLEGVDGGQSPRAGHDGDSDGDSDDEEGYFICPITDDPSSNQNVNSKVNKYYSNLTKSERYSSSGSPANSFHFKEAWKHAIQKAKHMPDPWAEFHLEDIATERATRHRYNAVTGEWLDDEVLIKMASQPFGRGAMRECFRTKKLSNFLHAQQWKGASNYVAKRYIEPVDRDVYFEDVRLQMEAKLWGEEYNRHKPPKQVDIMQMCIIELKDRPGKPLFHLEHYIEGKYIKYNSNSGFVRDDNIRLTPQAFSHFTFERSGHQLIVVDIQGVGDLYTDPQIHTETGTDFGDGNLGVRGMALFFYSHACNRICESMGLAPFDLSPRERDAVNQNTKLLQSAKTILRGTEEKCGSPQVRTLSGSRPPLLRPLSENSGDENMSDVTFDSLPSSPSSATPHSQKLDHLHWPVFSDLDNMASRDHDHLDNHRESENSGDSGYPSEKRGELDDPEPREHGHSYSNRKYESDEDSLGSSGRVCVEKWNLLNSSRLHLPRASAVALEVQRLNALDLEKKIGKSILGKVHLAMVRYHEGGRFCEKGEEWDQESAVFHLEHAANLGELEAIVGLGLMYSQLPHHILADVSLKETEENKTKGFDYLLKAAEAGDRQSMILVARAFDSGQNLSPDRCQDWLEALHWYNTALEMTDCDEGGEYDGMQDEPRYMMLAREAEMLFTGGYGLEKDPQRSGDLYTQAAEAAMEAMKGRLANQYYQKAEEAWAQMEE
How it was run: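 LN-229 glioblastoma lysate supplied both EF2K and eEF2 substrate; compound incubated with lysate 15 minutes at room temperature at pH 6.6 with 10 mM Mg2+ and 10 mM ATP, then stopped with excess EDTA. Thr56-phosphorylated eEF2 detected by sandwich AlphaLISA, final read after overnight standing.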

IC50 [M]	Compound
1.12e-07	O=C1CN2CCN(Cc3cccc(c3)Nc3cc(ccn3)-c3cnc(nc3)NCCCN1)C(CO)C2 (single isomer, unassigned) [Compound 7]
> 3.02e-05	COCCCN1CCCN(C)C(=O)CN2CCN(CC2)Cc2cccc(c2)Nc2cc(ccn2)-c2cnc1nc2 [Compound 14]
> 3.02e-05	COCCN1CCN(C)C(=O)CN2CCN(CC2)Cc2cccc(c2)Nc2cc(ccn2)-c2cnc1nc2 [Compound 15]
5.5e-09	CC1CN2CCN1Cc1cccc(c1)Nc1cc(ccn1)-c1cnc(nc1)N1CC(O)CC1CCNC(=O)C2 (centres unmarked) [Compound 62]
~3.55e-07	O=C1CN2CCN(CC2)Cc2cccc(c2)Nc2cc(ccn2)-c2ccc(nc2)NCCCN1 [Compound 67]
5.13e-07	CN1CCCN(C)c2ccc(cn2)-c2ccnc(c2)Nc2cccc(c2)CN2CCN(CC2)CC1=O [Compound 68]
2.88e-07	CN1CCCNC(=O)CN2CCN(CC2)Cc2cccc(c2)Nc2cc(ccn2)-c2ccc1nc2 [Compound 72]
5.25e-06	O=C1CN2CCN(CC2)C2(CC2)c2cccc(c2)Nc2cc(ccn2)-c2cnc(nc2)NCCCN1 [Compound 73]
1.2e-07	CC1(C)c2cccc(c2)Nc2cc(ccn2)-c2cnc(nc2)NCCCNC(=O)CN2CCN1CC2 [Compound 74]
4.27e-08	N#CC1CC2CCNC(=O)CN3CCN(CC3)Cc3cccc(c3)Nc3cc(ccn3)-c3cnc(nc3)N2C1 (centres unmarked) [Compound 77]
3.72e-08	N#CC1CC2CCNC(=O)CN3CCN(CC3)Cc3cccc(c3)Nc3cc(ccn3)-c3cnc(nc3)N2C1 (centres unmarked) [Compound 78]
8.71e-09	[N-]=[N+]=N[C@H]1C[C@H]2CCNC(=O)C3(CC3)N3CCN(CC3)Cc3cccc(c3)Nc3cc(ccn3)-c3cnc(nc3)N2C1 [Compound 83]
7.24e-08	NC1CC2CCNC(=O)CN3CCN(CC3)Cc3cccc(c3)Nc3cc(ccn3)-c3cnc(nc3)N2C1 (centres unmarked) [Compound 84]
3.39e-07	NS(=O)(=O)NC1CC2CCNC(=O)CN3CCN(CC3)Cc3cccc(c3)Nc3cc(ccn3)-c3cnc(nc3)N2C1 (centres unmarked) [Compound 86]
1.95e-08	NS(=O)(=O)NC1CC2CCNC(=O)C3(CC3)N3CCN(CC3)Cc3cccc(c3)Nc3cc(ccn3)-c3cnc(nc3)N2C1 (centres unmarked) [Compound 87]
6.46e-08	O=C1CC2CCNC(=O)CN3CCN(CC3)Cc3cccc(c3)Nc3cc(ccn3)-c3cnc(nc3)N2C1 (centres unmarked) [Compound 88]

molecular target: T2, eEF2K (Homo sapiens, UniProt O00418); experiment: EF2K cell-based assay (P-EF2 AlphaLISA, 2-deoxyglucose stimulated MCF10A cells); conditions: 2.5 mM 2-deoxyglucose 4 h, phosphorylation of EF2 at Thr 56, pIC50 = -log IC50 (M), read-out: eEF2K_C_PThr56 pIC50 (converted)
T2 construct: in the immortalized epithelial breast cell lines, MCF10A; host or cells: MCF10A immortalized breast epithelial cells
T2 sequence (O00418 1-725): T1 sequence (O00418 1-725)
How it was run: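 MCF10A cells pretreated with compound for 1 h, then stimulated with 2.5 mM 2-deoxyglucose for 4 h to deplete ATP and activate AMPK. Phospho-EF2 in lysates measured by AlphaLISA.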

IC50 [M]	Compound
1.62e-05	O=C1CN2CCN(Cc3cccc(c3)Nc3cc(ccn3)-c3cnc(nc3)NCCCN1)C(CO)C2 (single isomer, unassigned) [Compound 7]
> 3.02e-05	COCCCN1CCCN(C)C(=O)CN2CCN(CC2)Cc2cccc(c2)Nc2cc(ccn2)-c2cnc1nc2 [Compound 14]
> 3.02e-05	COCCN1CCN(C)C(=O)CN2CCN(CC2)Cc2cccc(c2)Nc2cc(ccn2)-c2cnc1nc2 [Compound 15]
8.51e-08	CC1CN2CCN1Cc1cccc(c1)Nc1cc(ccn1)-c1cnc(nc1)N1CC(O)CC1CCNC(=O)C2 (centres unmarked) [Compound 62]
3.98e-06	O=C1CN2CCN(CC2)Cc2cccc(c2)Nc2cc(ccn2)-c2ccc(nc2)NCCCN1 [Compound 67]
> 3.02e-05	CN1CCCN(C)c2ccc(cn2)-c2ccnc(c2)Nc2cccc(c2)CN2CCN(CC2)CC1=O [Compound 68]
5.89e-06	CN1CCCNC(=O)CN2CCN(CC2)Cc2cccc(c2)Nc2cc(ccn2)-c2ccc1nc2 [Compound 72]
> 1e-05	O=C1CN2CCN(CC2)C2(CC2)c2cccc(c2)Nc2cc(ccn2)-c2cnc(nc2)NCCCN1 [Compound 73]
1.51e-06	CC1(C)c2cccc(c2)Nc2cc(ccn2)-c2cnc(nc2)NCCCNC(=O)CN2CCN1CC2 [Compound 74]
3.8e-06	N#CC1CC2CCNC(=O)CN3CCN(CC3)Cc3cccc(c3)Nc3cc(ccn3)-c3cnc(nc3)N2C1 (centres unmarked) [Compound 77]
2.24e-06	N#CC1CC2CCNC(=O)CN3CCN(CC3)Cc3cccc(c3)Nc3cc(ccn3)-c3cnc(nc3)N2C1 (centres unmarked) [Compound 78]
6.61e-07	[N-]=[N+]=N[C@H]1C[C@H]2CCNC(=O)C3(CC3)N3CCN(CC3)Cc3cccc(c3)Nc3cc(ccn3)-c3cnc(nc3)N2C1 [Compound 83]
1.02e-06	NC1CC2CCNC(=O)CN3CCN(CC3)Cc3cccc(c3)Nc3cc(ccn3)-c3cnc(nc3)N2C1 (centres unmarked) [Compound 84]
> 1e-05	NS(=O)(=O)NC1CC2CCNC(=O)CN3CCN(CC3)Cc3cccc(c3)Nc3cc(ccn3)-c3cnc(nc3)N2C1 (centres unmarked) [Compound 86]
~2.29e-06	NS(=O)(=O)NC1CC2CCNC(=O)C3(CC3)N3CCN(CC3)Cc3cccc(c3)Nc3cc(ccn3)-c3cnc(nc3)N2C1 (centres unmarked) [Compound 87]
4.57e-07	O=C1CC2CCNC(=O)CN3CCN(CC3)Cc3cccc(c3)Nc3cc(ccn3)-c3cnc(nc3)N2C1 (centres unmarked) [Compound 88]

molecular target: PIK3C3 lipid kinase (Homo sapiens, UniProt Q8NEB9); experiment: Biochemical Vps34 lipid kinase assay (ADP-Glo); conditions: 1 h, single dose 1 μM; residual activity compared to control (DMSO); 20 μM ATP; read-out: VPS34_1microM_%ofcntrl
Method: A non-radiometric kinase assay (ADP-Glo™ Assay, Promega, Madison, Wi, USA) was used for measuring the kinase activity of the PIK3C3 lipid kinase. All kinase assays were performed in 96-well half-area microtiter plates in a 25 μl reaction volume. The reaction cocktail was pipetted in 3 steps in the following order: • 10 μl of ATP solution (in assay buffer, see below) • 5 μl of test sample in 5% DMSO 10 μl of enzyme/substrate mixture
All lipid kinase assays contained 50 mM HEPES (4-(2-hydroxyethyl)-1-piperazineethanesulfonic acid)—NaOH, pH 7.5, 1 mM EGTA ((ethylene glycol tetraacetic acid), 100 mM NaCl, 0.03% CHAPS (3-[(3-Cholamidopropyl) dimethylammonio]-1-propanesulfonate), 2 mM DTT (Dithiothreitol), 20 μM ATP (corresponding to the apparent ATP-Km), kinase (7.6 nM) and substrate (50 μM). The assay for PIK3C3 additionally contained 3 mM MnCl2.
The reaction cocktails were incubated at 30° C. for 60 minutes. The reaction was stopped with 25 μl ADP-Glo™ reagent per well. Plates were incubated for 40 minutes at room temperature, followed by addition of 50 μl kinase detection reagent per well and incubation for 60 minutes at room temperature. Signal was determined with a microplate luminescence reader (Victor, Perkin Elmer). The assay was either performed using a single dose of compound (1 μM final concentration in the assay reaction) with resulting data expressed as residual activity compared to control (DMSO), or using a serial (half-log) dilution of compounds starting at 10 μM and down to 0.3 nM (final concentrations in the assay) with data expressed as the pIC50.

Sequence of PIK3C3 lipid kinase (Q8NEB9 whole entry): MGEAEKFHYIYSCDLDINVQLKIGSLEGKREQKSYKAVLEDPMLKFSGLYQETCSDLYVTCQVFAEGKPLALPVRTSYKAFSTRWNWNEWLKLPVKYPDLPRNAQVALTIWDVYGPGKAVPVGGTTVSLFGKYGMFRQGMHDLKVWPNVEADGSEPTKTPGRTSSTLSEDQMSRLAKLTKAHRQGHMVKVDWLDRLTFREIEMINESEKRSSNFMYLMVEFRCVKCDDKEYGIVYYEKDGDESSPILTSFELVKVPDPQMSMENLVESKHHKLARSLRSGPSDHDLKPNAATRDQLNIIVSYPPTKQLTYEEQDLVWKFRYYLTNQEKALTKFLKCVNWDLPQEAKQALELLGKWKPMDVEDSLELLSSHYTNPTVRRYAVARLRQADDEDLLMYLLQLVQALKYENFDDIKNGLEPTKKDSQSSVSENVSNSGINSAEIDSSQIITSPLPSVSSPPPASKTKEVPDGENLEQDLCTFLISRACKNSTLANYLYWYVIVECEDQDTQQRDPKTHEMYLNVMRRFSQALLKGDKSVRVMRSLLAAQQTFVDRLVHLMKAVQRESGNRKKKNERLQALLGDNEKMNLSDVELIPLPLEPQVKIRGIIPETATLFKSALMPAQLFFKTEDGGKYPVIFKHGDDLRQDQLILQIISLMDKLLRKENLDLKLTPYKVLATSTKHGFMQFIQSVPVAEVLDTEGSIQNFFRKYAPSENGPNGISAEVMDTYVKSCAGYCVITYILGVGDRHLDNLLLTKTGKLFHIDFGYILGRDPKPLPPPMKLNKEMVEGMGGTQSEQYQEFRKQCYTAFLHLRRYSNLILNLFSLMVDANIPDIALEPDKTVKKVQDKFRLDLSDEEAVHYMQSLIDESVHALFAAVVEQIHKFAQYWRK

remaining activity at 1 µM [%]	Compound
12.5	O=C1CN2CCN(Cc3cccc(c3)Nc3cc(ccn3)-c3cnc(nc3)NCCCN1)C(CO)C2 (single isomer, unassigned) [Compound 7]
50.4	COCCCN1CCCN(C)C(=O)CN2CCN(CC2)Cc2cccc(c2)Nc2cc(ccn2)-c2cnc1nc2 [Compound 14]
67	COCCN1CCN(C)C(=O)CN2CCN(CC2)Cc2cccc(c2)Nc2cc(ccn2)-c2cnc1nc2 [Compound 15]
34	O=C1CN2CCN(CC2)Cc2cccc(c2)Nc2cc(ccn2)-c2ccc(nc2)NCCCN1 [Compound 67]
50.8	CN1CCCNC(=O)CN2CCN(CC2)Cc2cccc(c2)Nc2cc(ccn2)-c2ccc1nc2 [Compound 72]
70.1	CC1(C)c2cccc(c2)Nc2cc(ccn2)-c2cnc(nc2)NCCCNC(=O)CN2CCN1CC2 [Compound 74]
42.3	[N-]=[N+]=N[C@H]1C[C@H]2CCNC(=O)C3(CC3)N3CCN(CC3)Cc3cccc(c3)Nc3cc(ccn3)-c3cnc(nc3)N2C1 [Compound 83]
21.6	NC1CC2CCNC(=O)CN3CCN(CC3)Cc3cccc(c3)Nc3cc(ccn3)-c3cnc(nc3)N2C1 (centres unmarked) [Compound 84]
68	NS(=O)(=O)NC1CC2CCNC(=O)CN3CCN(CC3)Cc3cccc(c3)Nc3cc(ccn3)-c3cnc(nc3)N2C1 (centres unmarked) [Compound 86]
33.8	NS(=O)(=O)NC1CC2CCNC(=O)C3(CC3)N3CCN(CC3)Cc3cccc(c3)Nc3cc(ccn3)-c3cnc(nc3)N2C1 (centres unmarked) [Compound 87]
66.5	O=C1CC2CCNC(=O)CN3CCN(CC3)Cc3cccc(c3)Nc3cc(ccn3)-c3cnc(nc3)N2C1 (centres unmarked) [Compound 88]

same assay, conditions: serial dilution 10 μM to 0.3 nM; 20 μM ATP; pIC50 = -log IC50 (M)

IC50 [M]	Compound
1.07e-07	O=C1CN2CCN(Cc3cccc(c3)Nc3cc(ccn3)-c3cnc(nc3)NCCCN1)C(CO)C2 (single isomer, unassigned) [Compound 7]
1.23e-06	CC1CN2CCN1Cc1cccc(c1)Nc1cc(ccn1)-c1cnc(nc1)N1CC(O)CC1CCNC(=O)C2 (centres unmarked) [Compound 62]
4.68e-06	CN1CCCN(C)c2ccc(cn2)-c2ccnc(c2)Nc2cccc(c2)CN2CCN(CC2)CC1=O [Compound 68]
> 1e-05	O=C1CN2CCN(CC2)C2(CC2)c2cccc(c2)Nc2cc(ccn2)-c2cnc(nc2)NCCCN1 [Compound 73]
3.24e-07	NC1CC2CCNC(=O)CN3CCN(CC3)Cc3cccc(c3)Nc3cc(ccn3)-c3cnc(nc3)N2C1 (centres unmarked) [Compound 84]

same assay, conditions: single dose 1 μM; residual activity compared to control (DMSO); 20 μM ATP

VPS34_1microM_%ofcntrl [%]	Compound
86.17	N#CC1CC2CCNC(=O)CN3CCN(CC3)Cc3cccc(c3)Nc3cc(ccn3)-c3cnc(nc3)N2C1 (centres unmarked) [Compound 77]
43.17	N#CC1CC2CCNC(=O)CN3CCN(CC3)Cc3cccc(c3)Nc3cc(ccn3)-c3cnc(nc3)N2C1 (centres unmarked) [Compound 78]

system: not given; experiment: not given; conditions: not given

melting point [°C]	Compound
267.8 to 267.9	O=C1CN2CCN(Cc3cccc(c3)Nc3cc(ccn3)-c3cnc(nc3)NCCCN1)C(CO)C2 (single isomer, unassigned) [Compound 7]
240	COCCCN1CCCN(C)C(=O)CN2CCN(CC2)Cc2cccc(c2)Nc2cc(ccn2)-c2cnc1nc2 [Compound 14]
240	COCCN1CCN(C)C(=O)CN2CCN(CC2)Cc2cccc(c2)Nc2cc(ccn2)-c2cnc1nc2 [Compound 15]
